Data on twelve compounds can be found in patent US8329707B2, “Substituted pyrazine compounds” (Astellas Pharma Inc., priority 2008, dated 2012).

One test relates to SD rat. Briefly: Oral glucose tolerance test in normal rat. The test is classed as in vivo. The settings on record: SD rat fasted overnight; 1 mg/kg oral, glucose loading after 30 minutes; AUC lowering rate of blood glucose up to 2 hours vs solvent control. As for the experimental part:
(§1) The test compound was dissolved in a solvent (5% Cremophor, aqueous 5% DMSO solution), and to an SD rat after fasting overnight was orally administered 1 mg/kg of the test compound, and after 30 minutes, oral glucose loading was carried out. Immediately before the administration of the test compound, immediately before the glucose loading, and 0.5, 1, and 2 hours after the glucose loading, blood was collected and blood glucose levels were measured. An AUC lowering rate (%) of the blood glucose levels from immediately before the glucose loading to 2 hours after the glucose loading with respect to that of the solvent control was calculated.

The test system of a further test is ICR mouse. Briefly: Oral glucose tolerance test in normal mouse. The test is classed as in vivo. Particulars: ICR mouse fasted overnight; 10 mg/kg oral, glucose loading after 30 minutes; AUC lowering rate of blood glucose up to 2 hours after glucose loading vs solvent control. How it is done: as §1, with “to an ICR mouse after fasting” for “to an SD rat after fasting”, “orally administered 10 mg/kg of” for “orally administered 1 mg/kg of”, “loading, and 0.25, 0.5, 1,” for “loading, and 0.5, 1,”, “solvent control group was calculated.” for “solvent control was calculated.”

Test [1] addresses T1, recombinant human hepatic type GK (GST-hGK2) (Homo sapiens, UniProt P35557).
T1 construct: made in house; host or cells: Escherichia coli BL21
T1 sequence (P35557 1-466 isoform P35557-2): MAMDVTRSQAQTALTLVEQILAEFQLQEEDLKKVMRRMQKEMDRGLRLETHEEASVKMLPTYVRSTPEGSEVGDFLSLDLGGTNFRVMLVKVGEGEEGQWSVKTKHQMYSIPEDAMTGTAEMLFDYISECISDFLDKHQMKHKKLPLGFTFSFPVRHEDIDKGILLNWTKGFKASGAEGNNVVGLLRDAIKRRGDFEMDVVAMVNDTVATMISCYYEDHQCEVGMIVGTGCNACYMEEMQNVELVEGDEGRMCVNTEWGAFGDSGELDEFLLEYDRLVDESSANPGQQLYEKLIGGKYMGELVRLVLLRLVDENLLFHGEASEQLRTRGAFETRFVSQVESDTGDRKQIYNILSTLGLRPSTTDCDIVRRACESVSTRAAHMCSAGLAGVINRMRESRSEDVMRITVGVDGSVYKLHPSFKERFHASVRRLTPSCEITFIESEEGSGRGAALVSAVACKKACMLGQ
Briefly: Measurement of glucokinase (GK) activation. The test is classed as biochemical. The settings on record: 10 min; test compound final concentration 10 μM; 5 mM glucose; 27° C.; increase of absorbance at 340 nm during first 10 minutes vs DMSO; read-out: GK activation (%). How it is done: The present test was carried out in accordance with the method described in Science 301: 370-373, 2003 and with partial modification thereof. Hereinafter, the summary is described.
First, the cloning of GK (GenBank No. AK122876) was carried out. 5′-[…]-3′(SEQ ID NO: 1) and 5′-[…]-3′(SEQ ID NO: 2) were used as primers, and pME18S-FL3-Glucokinase isoform 2 was used as a template to carry out PCR. The obtained reaction product was TA-cloned into a pGEM-T easy vector, digested with EcoRI and XhoI, and introduced to the pGEX-5X-1 vector digested in the same manner by ligation. By using this plasmid DNA (pGEX-human Glucokinase 2), a recombinant human hepatic type GK (GST-hGK2) fused with GST (Glutathione S-transferase) was expressed in Escherichia coli (BL21 strain) and purified by Glutathione Sepharose.
The reaction of GK was carried out at 27° C. on a 96-well plate. First, 1 μL of the test compound (final concentration 10 μM) that has been diluted with dimethylsulfoxide (DMSO) was added to 89 μL of an enzyme mixed liquid (all final concentration 25 mM HEPES pH 7.4, 25 mM KCl, 2 mM MgCl2, 1 mM ATP, 0.1% BSA, 1 mM DTT, 1 mM NADP (nicotinamide adenine dinucleotide phosphate), 2.5 U/ml glucose-6-phosphate dehydrogenase, GST-hGK2 adjusted to ΔODCont of about 0.05 to 0.10). Subsequently, 10 μL of a substrate solution (final concentration 5 mM glucose) was added to start the reaction. In order to quantify a final product NADPH, an absorbance at a wavelength of 340 nm was measured, and the GK activation (%) of the test compound was calculated from the increase of absorbance during the first 10 minutes (ΔOD) after initiation of the reaction. GK activation (%)=[(ΔODTest)−(ΔODCont)]/(ΔODCont)×100
ΔODTest: ΔOD at test compound

Test [2] concerns C57BL/6 mice after loading a high fat diet. Briefly: Oral glucose tolerance test in mouse fed high fat diet. The format is in vivo. The settings on record: high fat diet about 30 days, fasted overnight, 1 mg/kg oral, glucose loading after 30 minutes, AUC lowering rate of blood glucose up to 2 hours vs solvent control. As for the experimental part:
The test compound was dissolved in a solvent (5% Cremophor, aqueous 5% DMSO solution), and to a C57BL/6 mice after loading a high fat diet for about 30 days and then fasting overnight was orally administered 1 mg/kg of the test compound, and after 30 minutes, oral glucose loading was carried out. Immediately before the administration of the test compound, immediately before the glucose loading, and 0.25, 0.5, 1, and 2 hours after the glucose loading, blood was collected and blood glucose levels were measured. An AUC lowering rate (%) of the blood glucose levels from immediately before the glucose loading to 2 hours after the glucose loading with respect to that of the solvent control was calculated.

Structures can show the parent of a compound that is named as a salt.

One may read the inhibition in vivo as the share of the control response that was lost under treatment. Consider `O=C1CC[C@H](C[C@@H](C(=O)Nc2cnc(CO)cn2)c2ccc(S(=O)(=O)C3CC3)c(C3CC3)c2)C1` [Example 15, (2R)-2-[3-cyclopropyl-4-(cyclopropylsulfonyl)phenyl]-N-[5-(hydroxymethyl)pyrazin-2-yl]-3-[(1R)-3-oxocyclopentyl]propanamide], for which the “Blood glucose lowering rate (%)” value with SD rat amounted to 22%. For the same compound, testing at 10 mg/kg in the test with ICR mouse gave an inhibition in vivo of 49%. In addition, the activation at 10 µM in test [1] stood at 284%.

In the case of `CC(=O)c1csc(NC(=O)[C@H](C[C@H]2CCC(=O)C2)c2ccc(S(=O)(=O)C3CC3)c(C3CC3)c2)n1` [Example 51], in the test with ICR mouse, the inhibition in vivo at 10 mg/kg came out at 55%. Also, the activation at 10 µM in test [1] amounted to 352%.

Regarding `CC(C)(O)COc1cnc(NC(=O)[C@H](C[C@H]2CCC(=O)C2)c2ccc(S(=O)(=O)C3CC3)c(C3CC3)c2)cn1` [Example 10, (2R)-2-[3-cyclopropyl-4-(cyclopropylsulfonyl)phenyl]-N-[5-(2-hydroxy-2-methylpropoxy)pyrazin-2-yl]-3-[(1R)-3-oxocyclopentyl]propanamide], in the test with ICR mouse, the inhibition in vivo at 10 mg/kg is 51%. The activation at 10 µM in test [1] came to 357%.

In turn, `Cc1ccc(NC(=O)[C@H](C[C@H]2CCC(=O)C2)c2ccc(S(=O)(=O)C3CC3)c(C3CC3)c2)nc1` [Example 9, (2R)-2-[3-cyclopropyl-4-(cyclopropylsulfonyl)phenyl]-N-(5-methylpyridin-2-yl)-3-[(1R)-3-oxocyclopentyl]propanamide monohydrochloride] came in with an inhibition in vivo at 10 mg/kg with ICR mouse of 52%. Besides, in test [1], the activation at 10 µM stood at 333%.

Take `Cn1ccc(NC(=O)/C(=C/[C@H]2CC[C@@H](O)C2)c2ccc(S(=O)(=O)C3CC3)c(C3CC3)c2)n1` [Example 22-2, 2(E)-[3-cyclopropyl-4-(cyclopropylsulfonyl)phenyl]-3-[(1S,3R)-3-hydroxycyclopentyl]-N-(1-methyl-1H-pyrazol-3-yl)acrylamide]: the “Blood glucose lowering rate (%)” value in the test with SD rat was 25%. The compound further showed an inhibition in vivo at 10 mg/kg in the test on ICR mouse of 52%. Besides, in test [1], the activation at 10 µM was determined as 199%.

`O=C1CC[C@H](C[C@@H](C(=O)Nc2cnc(Cl)cn2)c2ccc(S(=O)(=O)C3CC3)c(C3CC3)c2)C1` [Example 70] gave an inhibition in vivo at 10 mg/kg in the test with ICR mouse of 60%. In test [1], the activation at 10 µM came out at 282%.

Regarding `Cn1ccc(NC(=O)/C(=C/[C@H]2CCC(=O)C2)c2ccc(S(=O)(=O)C3CC3)c(C3CC3)c2)n1` [Example 4-1, (2E)-2-[3-cyclopropyl-4-(cyclopropylsulfonyl)phenyl]-N-(1-methyl-1H-pyrazol-3-yl)-3-[(1S)-3-oxocyclopentyl]acrylamide], the “Blood glucose lowering rate (%)” value in test [2] is on record as 32%; with SD rat it was 25%. Besides, in the test with ICR mouse, the inhibition in vivo at 10 mg/kg was 39%. Besides, the activation at 10 µM in test [1] stood at 355%.

Take `Cc1cnc(NC(=O)/C(=C/[C@H]2CCC(=O)C2)c2ccc(S(=O)(=O)C3CC3)c(C3CC3)c2)cn1` [Example 36]: the entries for the “Blood glucose lowering rate (%)” value (in test [2]; with SD rat) were 43% and 40%, respectively. In addition, 10 mg/kg produced 45% inhibition in vivo with ICR mouse. For the same compound, the activation at 10 µM in test [1] is 332%.

Consider `CC(O)c1cnc(NC(=O)[C@H](C[C@H]2CCC(=O)C2)c2ccc(S(=O)(=O)C3CC3)c(C3CC3)c2)cn1` (stereo partly drawn) [Example 83], for which, in the test on SD rat, the “Blood glucose lowering rate (%)” value is on record as 17%. At 10 mg/kg the inhibition in vivo in the test on ICR mouse was 51%. The activation at 10 µM in test [1] came to 345%.

`O=C1CC[C@H](C[C@@H](C(=O)Nc2cnc(OCCO)cn2)c2ccc(S(=O)(=O)C3CC3)c(C3CC3)c2)C1` [Example 11, (2R)-2-[3-cyclopropyl-4-(cyclopropylsulfonyl)phenyl]-N-[5-(2-hydroxyethoxy)pyrazin-2-yl]-3-[(1R)-3-oxocyclopentyl]propanamide]: the “Blood glucose lowering rate (%)” value with SD rat came to 20%. Besides, the inhibition in vivo at 10 mg/kg in the test on ICR mouse was 50%. In test [1], the activation at 10 µM is 433%.

`Cc1cnc(NC(=O)[C@H](C[C@H]2CCC(O)C2)c2ccc(S(=O)(=O)C3CC3)c(C3CC3)c2)cn1` (stereo partly drawn) [Example 78]: the inhibition in vivo at 10 mg/kg with ICR mouse stood at 50%. For the same compound, the activation at 10 µM in test [1] amounted to 273%.

In the case of `Cn1ccc(NC(=O)/C(=C/[C@H]2CC[C@H](O)C2)c2ccc(S(=O)(=O)C3CC3)c(C3CC3)c2)n1` [Example 22-1, 2(E)-[3-cyclopropyl-4-(cyclopropylsulfonyl)phenyl]-3-[(1S,3S)-3-hydroxycyclopentyl]-N-(1-methyl-1H-pyrazol-3-yl)acrylamide], the “Blood glucose lowering rate (%)” value with SD rat was found to be 27%. Moreover, at 10 mg/kg the inhibition in vivo with ICR mouse was 55%. Also, the activation at 10 µM in test [1] came to 197%.
